Results taken from patent US20260217706A1, “HETEROCYCLIC COMPOUNDS, PREPARATION METHOD THEREFOR AND USE THEREOF” (GUANGZHOU YUFAN NANTU BIOTECHNOLOGIES CO., LTD, priority 2023, published 2026).

Key:
[1] = molecular target: CBL-B protein (Homo sapiens, UniProt Q13191); assay: CBL-B binding experiment (Streptavidin-Tb cryptate / Ligand L1 displacement); details: 8 nM CBL-B protein, 25° C., 60 minutes; Ki=Relative IC50/2
Procedure, shortened: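 Compounds in a 10-point DMSO series met 8 nM CBL-B protein in HEPES pH 7.5/NaCl/Triton/TCEP/BSA buffer at 25° C. for 60 min. A further 60 min at room temperature preceded the luminescence read, normalised to no-protein and DMSO wells. Ki was taken as relative IC50 divided by 2.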

[2] = test system: anti-CD3 activated human PBMCs; assay: Effect of compounds on the level of IL-2 secretion by anti-CD3 activated human PBMCs (IL-2 ELISA); type: cell-based; details: compound concentration at which fold change in IL-2 = 5; hPBMCs, CD3 antibody 2 μg/mL, 48 h, compound from 3 μM
Procedure, shortened: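 Human PBMCs were preincubated 1 h, then exposed to compound (10 points, 3-fold from 3 μM final) with anti-CD3 at 2 μg/mL for 48 h at 37° C. Supernatant IL-2 was measured by ELISA as fold change over DMSO.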

CBL-B protein, sequence (Q13191 whole entry): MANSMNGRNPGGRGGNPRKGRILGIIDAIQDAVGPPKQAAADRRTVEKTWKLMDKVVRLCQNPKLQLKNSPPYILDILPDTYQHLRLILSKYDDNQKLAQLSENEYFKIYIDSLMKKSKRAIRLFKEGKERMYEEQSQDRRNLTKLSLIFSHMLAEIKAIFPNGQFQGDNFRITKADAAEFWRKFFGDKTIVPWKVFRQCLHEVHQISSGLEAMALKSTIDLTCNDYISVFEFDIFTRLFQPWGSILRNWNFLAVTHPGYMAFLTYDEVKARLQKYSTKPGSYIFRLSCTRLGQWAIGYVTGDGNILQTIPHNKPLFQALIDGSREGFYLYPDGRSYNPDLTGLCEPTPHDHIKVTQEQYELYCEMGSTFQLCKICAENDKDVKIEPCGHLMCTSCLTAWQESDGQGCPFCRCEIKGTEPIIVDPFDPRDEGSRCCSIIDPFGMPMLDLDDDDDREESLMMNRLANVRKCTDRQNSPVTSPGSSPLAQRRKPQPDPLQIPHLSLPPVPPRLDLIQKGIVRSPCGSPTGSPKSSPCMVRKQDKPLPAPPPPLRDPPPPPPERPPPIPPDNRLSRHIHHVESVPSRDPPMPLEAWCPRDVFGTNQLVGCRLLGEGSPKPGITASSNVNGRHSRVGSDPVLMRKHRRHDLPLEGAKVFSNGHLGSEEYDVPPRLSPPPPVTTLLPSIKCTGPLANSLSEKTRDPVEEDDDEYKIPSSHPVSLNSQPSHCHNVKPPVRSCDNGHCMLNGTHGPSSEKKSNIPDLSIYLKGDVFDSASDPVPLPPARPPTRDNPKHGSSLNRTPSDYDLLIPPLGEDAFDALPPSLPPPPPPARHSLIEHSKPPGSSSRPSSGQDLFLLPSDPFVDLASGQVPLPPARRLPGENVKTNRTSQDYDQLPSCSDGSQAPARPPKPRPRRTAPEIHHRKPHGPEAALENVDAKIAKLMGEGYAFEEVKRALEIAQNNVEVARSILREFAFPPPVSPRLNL

Row | Compound | Ki [1] [nM] | IL-2 CFC=5/nM [2] [nM]
1 | CCN(Cc1cc2c(C(F)(F)F)cn(-c3cccc([C@]4(c5nncn5C)C[C@@H](OC)C4)c3)c(=O)c2[nH]1)C(C)C [Compound T192] | < 50 | <500
2 | Cn1cnnc1C1(c2cccc(-n3cc(C(F)(F)F)c4cc(CNC(C)(C)C)[nH]c4c3=O)c2)CCC1 [Compound T161, 2-((tert-butylamino)methyl)-6-(3-(1-(4-methyl-4H-1,2,4-triazol-3-yl)cyclobutyl)phenyl)-4-(trifluoromethyl)-1,6-dihydro-7H-pyrrolo[2,3-c]pyridin-7-one] | < 50 | <500
3 | CCN(CC)Cc1cc2c(C(F)(F)F)cn(-c3cccc(C4(c5nncn5C)CCC4)c3)c(=O)c2[nH]1 [Compound T005, 2-(diethylaminomethyl)-6-[3-[1-(4-methyl-1,2,4-triazol-3-yl)cyclobutyl]phenyl]-4-(trifluoromethyl)-1H-pyrrolo[2,3-c]pyridin-7-one] | < 50 | <500
4 | Cn1cnnc1C1(c2cccc(-n3cc(C(F)(F)F)c4cc(CNCC(C)(C)C)[nH]c4c3=O)c2)CCC1 [Compound T162, 6-(3-(1-(4-methyl-4H-1,2,4-triazol-3-yl)cyclobutyl)phenyl)-2-((neopentylamino)methyl)-4-(trifluoromethyl)-1,6-di hydro-7H-pyrrolo[2,3-c]pyridin-7-one] | < 50 | <500
5 | CCC(C)CN(C)Cc1cc2c(C(F)(F)F)cn(-c3cccc(C4(c5nncn5C)CCC4)c3)c(=O)c2[nH]1 (centres unmarked) [Compound T040, 2-[[methyl(2-methylbutyl)amino]methyl]-6-[3-[1-(4-methyl-1,2,4-triazol-3-yl)cyclobutyl]phenyl]-4-(trifluoromethyl)-1H-pyrrolo[2,3-c]pyridin-7-one] | < 50 | <500
6 | CCN(CC)Cc1cc2c(C(F)(F)F)cn(-c3cccc([C@]4(c5nncn5C)C[C@@H](C)C4)c3)c(=O)c2[nH]1 [Compound T018, 2-((diethylamino)methyl)-6-(3-((1s,3s)-3-methyl-1-(4-methyl-4H-1,2,4-triazol-3-yl)cyclobutyl)phenyl)-4-(trifluoromethyl)-1,6-dihydro-7H-pyrrolo[2,3-c]pyridin-7-one] | < 50 | <500
7 | CCN(Cc1cc2c(C(F)(F)F)cn(-c3cccc([C@]4(c5nncn5C)C[C@@H](C)C4)c3)c(=O)c2[nH]1)CC(C)C [Compound T069, 2-((ethyl(isobutyl)amino)methyl)-6-(3-((1s,3s)-3-methyl-1-(4-methyl-4H-1,2,4-triazol-3-yl)cyclobutyl)phenyl)-4-(trifluoromethyl)-1,6-dihydro-7H-pyrrolo[2,3-c]pyridin-7-one] | < 50 | <500
8 | CCNCc1cc2c(C(F)(F)F)cn(-c3cccc(C4(c5nncn5C)CCC4)c3)c(=O)c2[nH]1 [Compound T102, 2-((ethylamino)methyl)-6-(3-(1-(4-methyl-4H-1,2,4-triazol-3-yl)cyclobutyl)phenyl)-4-(trifluoromethyl)-1,6-dihydro-7H-pyrrolo[2,3-c]pyridin-7-one] | < 50 | <500
9 | Cn1cnnc1C1(c2cccc(-n3cc(C(F)(F)F)c4cc(CNCCC5CCC5)[nH]c4c3=O)c2)CCC1 [Compound T034, 2-(((2-cyclobutylethyl)amino)methyl)-6-(3-(1-(4-methyl-4H-1,2,4-triazol-3-yl)cyclobutyl)phenyl)-4-(trifluoromethyl)-1,6-dihydro-7H-pyrrolo[2,3-c]pyridin-7-one] | < 50 | <500
10 | CO[C@H]1C[C@](c2cccc(-n3cc(C(F)(F)F)c4cc(CNC5(C)CCC5)[nH]c4c3=O)c2)(c2nncn2C)C1 [Compound T066, 6-(3-((1r,3r)-3-methoxy-1-(4-methyl-4H-1,2,4-triazol-3-yl)cyclobutyl)phenyl)-2-(((1-methylcyclobutyl)amino)methyl)-4-(trifluoromethyl)-1,6-dihydro-7H-pyrrolo[2,3-c]pyridin-7-one] | < 50 | <500

The next lines start with results.

Row | Ki [1] [nM] | Compound | IL-2 CFC=5/nM [2] [nM]
11 | < 50 | C[C@@H]1CN(Cc2cc3c(C(F)(F)F)cn(-c4cccc(C5(c6nncn6C)CCC5)c4)c(=O)c3[nH]2)CCC1(F)F [Compound T111, (R)-2-((4,4-difluoro-3-methylpiperidin-1-yl)methyl)-6-(3-(1-(4-methyl-4H-1,2,4-triazol-3-yl)cyclobutyl)phenyl)-4-(trifluoromethyl)-1,6-dihydro-7H-pyrrolo[2,3-c]pyridin-7-one] | <500
12 | < 50 | C[C@H]1CCCN(Cc2cc3c(C(F)(F)F)cn(-c4cccc(C5(c6nncn6C)CC6(CC6)C5)c4)c(=O)c3[nH]2)C1 [Compound T084, 2-[[(3S)-3-methyl-1-piperidyl]methyl]-6-[3-[5-(4-methyl-1,2,4-triazol-3-yl)spiro[2.3]hexan-5-yl]phenyl]-4-(trifluoromethyl)-1H-pyrrolo[2,3-c]pyridin-7-one] | <500
13 | < 50 | C[C@H]1CCCN(Cc2cc3c(C(F)(F)F)cn(-c4cccc([C@]5(c6nncn6C)C[C@@H](F)C5)c4)c(=O)c3[nH]2)C1 [Compound T071, 6-[3-[3-fluoro-1-(4-methyl-1,2,4-triazol-3-yl)cyclobutyl]phenyl]-2-[[(3S)-3-methyl-1-piperidyl]methyl]-4-(trifluoromethyl)-1-H-pyrrolo[2,3-c]pyridin-7-one] | <500
14 | < 50 | CC[C@H]1C[C@@](c2cccc(-n3cc(C(F)(F)F)c4cc(CN5CCC[C@H](C)C5)[nH]c4c3=O)c2)(c2nncn2C)C1 [Compound T092, 6-(3-((1r,3R)-3-ethyl-1-(4-methyl-4H-1,2,4-triazol-3-yl)cyclobutyl)phenyl)-2-(((S)-3-methylpiperidin-1-yl)methyl)-4-(trifluoromethyl)-1,6-dihydro-7H-pyrrolo[2,3-c]pyridin-7-one] | <500
15 | < 50 | C[C@H]1CCCN(Cc2cc3c(C(F)(F)F)cn(-c4cccc(C5(Cc6nncn6C)CC(F)(F)C5)c4)c(=O)c3[nH]2)C1 [Compound T126, 6-[3-[3,3-difluoro-1-[(4-methyl-1,2,4-triazol-3-yl)methyl]cyclobutyl]phenyl]-2-[[(3S)-3-methyl-1-piperidyl]methyl]-4-(trifluoromethyl)-1H-pyrrolo[2,3-c]pyridin-7-one] | <500
16 | < 50 | CO[C@H]1C[C@](c2cccc(-n3cc(C(F)(F)F)c4cc(CN5CCC[C@H](C)C5)[nH]c4c3=O)c2)(c2nncn2C)C1 [Compound T135, 6-(3-((1r,3S)-3-methoxy-1-(4-methyl-4H-1,2,4-triazol-3-yl)cyclobutyl)phenyl)-2-(((S)-3-methylpiperidin-1-yl)methyl)-4-(trifluoromethyl)-1,6-dihydro-7H-pyrrolo[2,3-c]pyridin-7-one] | <500
17 | < 50 | C[C@H]1CCCN(Cc2cc3c(C(F)(F)F)cn(-c4cccc(C5(c6nncn6C)CC(F)C5)c4)c(=O)c3[nH]2)C1 (stereo partly drawn) [Compound T070, 6-[3-[3-fluoro-1-(4-methyl-1,2,4-triazol-3-yl)cyclobutyl]phenyl]-2-[[(3S)-3-methyl-1-piperidyl]methyl]-4-(trifluoromethyl)-1H-pyrrolo[2,3-c]pyridin-7-one] | <500
18 | < 50 | Cn1cnnc1C1(c2cccc(-n3cc(C(F)(F)F)c4cc(CN5CC6CC6C5)[nH]c4c3=O)c2)CCC1 (centres unmarked) [Compound T007, 2-((3-azabicyclo[3.1.0]hexan-3-yl)methyl)-6-(3-(1-(4-methyl-4H-1,2,4-triazol-3-yl)cyclobutyl)phenyl)-4-(trifluoromethyl)-1,6-dihydro-7H-pyrrolo[2,3-c]pyridin-7-one] | <500
19 | < 50 | Cn1cnnc1[C@]1(c2cccc(-n3cc(C(F)(F)F)c4cc(CN5CCCC6(CC6)C5)[nH]c4c3=O)c2)C[C@H](C)C1 [Compound T088, 2-((5-azaspiro[2.5]octan-5-yl)methyl)-6-(3-((1s,3s)-3-methyl-1-(4-methyl-4H-1,2,4-triazol-3-yl)cyclobutyl)phenyl)-4-(trifluoromethyl)-1,6-dihydro-7H-pyrrolo[2,3-c]pyridin-7-one] | <500
20 | < 50 | CO[C@H]1C[C@@](c2cccc(-n3cc(C(F)(F)F)c4cc(CN5CC6CCC(C6)C5)[nH]c4c3=O)c2)(c2nncn2C)C1 [Compound T145, 2-((3-azabicyclo[3.2.1]octan-3-yl)methyl)-6-(3-((1s,3s)-3-methoxy-1-(4-methyl-4H-1,2,4-triazol-3-yl)cyclobutyl)phenyl)-4-(trifluoromethyl)-1,6-dihydro-7H-pyrrolo[2,3-c]pyridin-7-one] | <500
21 | < 50 | C[C@H]1CCCN(Cc2cc3c(C(F)(F)F)cn(-c4cccc(C5(c6nncn6C)CCC5)c4)c(=O)c3[nH]2)C1 [Compound T033, 2-[[(3S)-3-methyl-1-piperidyl]methyl]-6-[3-[1-(4-methyl-1,2,4-triazol-3-yl)cyclobutyl]phenyl]-4-(trifluoromethyl)-1H-pyrrolo[2,3-c]pyridin-7-one] | <500
22 | < 50 | CC[C@H]1C[C@](c2cccc(-n3cc(C(F)(F)F)c4cc(CN5CCC[C@H](C)C5)[nH]c4c3=O)c2)(c2nncn2C)C1 [Compound T093, 6-(3-((1s,3S)-3-ethyl-1-(4-methyl-4H-1,2,4-triazol-3-yl)cyclobutyl)phenyl)-2-(((S)-3-methylpiperidin-1-yl)methyl)-4-(trifluoromethyl)-1,6-dihydro-7H-pyrrolo[2,3-c]pyridin-7-one] | <500
